Results from US10113189B2, “Isolation and characterization of a novel pythium omega 3 desaturase with specificity to all omega 6 fatty acids longer than 18 carbon chains” (priority 2006, dated 2018).

How the values were obtained:
[1] = system: control yeast pYES2 (yeast with pYES2.1 vector); experiment: Production of ω-3 fatty acids from exogenous ω-6 fatty acids in the control yeast pYES2; assay type: cell-based, S. cerevisiae; conditions: ω-3 product (ALA, SDA, ETA, EPA, DHA) of the fed substrate, GC
Experimental: (§1) The plasmids containing the full length O3 genes in the yeast expression vector pYES2.1/V5-His-TOPO were transformed into yeast S. cerevisiae. The positive transformants were selected for uracil auxotrophy on DOB-U agar plates. To characterize the ω-3 desaturase enzyme activity, positive clones and the control (yeast with pYES2.1 vector) were cultured overnight in DOB-U liquid medium at 28° C. and then grown in induction medium (DOB-U+Gal+Raf) containing 100 μM of various exogenously supplied fatty acid substrates at 16° C. for 4 days. The whole yeast cells expressing Pythium ω-3 genes were harvested by centrifugation and washed twice with distilled water. Then the yeast cells were directly transmethylated with methanolic HCl (3N) at 80° C. for 1 hour. The resultant methyl esters were extracted with hexane and analyzed by gas chromatography (GC). GC was carried out as described in WO 2005/083053.

[2] = system: ω-3 desaturase from Pythium irregulare; assay type: cell-based, S. cerevisiae; conditions: for desaturation by ω-3 desaturase from Pythium (in words): expression in yeast, exogenously supplied ω-6 fatty acids; for Conversion (%) / Product (%): yeast transformant pYES2-O3; for Conversion (%): conversion of ω-6 substrate into the corresponding ω-3 product; for Product (%): ω-3 product (ALA, SDA, ETA, EPA, DHA) of the fed substrate, 100 μM, 16° C., 4 days, GC
Experimental: as §1

SMILES | Product (%) [1] [%] | desaturation by ω-3 desaturase from Pythium (in words) [2] | Conversion (%) [2] [%] | Product (%) [2] [%]
CCCCC/C=C\C/C=C\CCCCCCCC(=O)O [LA, linoleic acid] | 0 | not able to desaturase | 0 | 0
CC/C=C\C/C=C\C/C=C\C/C=C\C/C=C\CCCCCC(=O)O [DPA, docosapentaenoic acid] | 0.03 |  | 2.01 | 0.20
CCCCC/C=C\C/C=C\C/C=C\CCCCC(=O)O [GLA, γ-linolenic acid] | 0 | not able to desaturase | 0 | 0
CCCCC/C=C\C/C=C\C/C=C\CCCCCCC(=O)O [DGLA, dihomo-γ-linolenic acid] | 0 | desaturates | 9.65 | 1.90
